From ChEMBL document CHEMBL4616657, “Aromatic Esters of the Crinane Amaryllidaceae Alkaloid Ambelline as Selective Inhibitors of Butyrylcholinesterase” (J Nat Prod, 2020)
pIC50: −log10 of the molar value.

What was measured:
[1] = target: T1, Cholinesterase (Homo sapiens, UniProt P06276); assay: Inhibition of human BuChE using butyrylthiocholine iodide as substrate measured for 1 min by spectrophotometric based Ellman's method
[2] = target: T2, Acetylcholinesterase (Homo sapiens, UniProt P22303); assay: Inhibition of human AChE using acetylthiocholine iodide as substrate measured for 1 min by spectrophotometric based Ellman's method
T2 sequence (P22303 whole entry): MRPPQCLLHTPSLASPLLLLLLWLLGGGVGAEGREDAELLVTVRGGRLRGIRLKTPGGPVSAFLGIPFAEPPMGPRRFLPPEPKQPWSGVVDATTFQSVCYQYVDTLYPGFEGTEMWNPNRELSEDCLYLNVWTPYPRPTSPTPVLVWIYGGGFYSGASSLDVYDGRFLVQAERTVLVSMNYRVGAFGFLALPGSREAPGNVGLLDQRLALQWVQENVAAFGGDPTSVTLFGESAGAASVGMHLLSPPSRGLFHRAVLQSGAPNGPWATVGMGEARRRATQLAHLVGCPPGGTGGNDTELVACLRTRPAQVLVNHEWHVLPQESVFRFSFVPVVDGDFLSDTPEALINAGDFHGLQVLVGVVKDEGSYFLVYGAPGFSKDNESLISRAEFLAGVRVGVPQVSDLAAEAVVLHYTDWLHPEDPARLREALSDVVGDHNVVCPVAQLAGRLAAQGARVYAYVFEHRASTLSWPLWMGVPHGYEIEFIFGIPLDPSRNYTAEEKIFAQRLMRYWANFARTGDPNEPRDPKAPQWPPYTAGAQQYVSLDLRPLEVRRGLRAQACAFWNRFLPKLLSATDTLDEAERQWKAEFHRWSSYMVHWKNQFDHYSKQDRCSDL

[3] = target: T1, Cholinesterase; assay: Inhibition of human BuChE using butyrylthiocholine iodide as substrate at 100 uM measured for 1 min by spectrophotometric based Ellman's method relative to control
[4] = target: T2, Acetylcholinesterase; assay: Inhibition of human AChE using acetylthiocholine iodide as substrate at 100 uM measured for 1 min by spectrophotometric based Ellman's method relative to control
[5] = species on record: Homo sapiens; assay: Selectivity index, ratio of IC50 for inhibition of human AChE using acetylthiocholine iodide as substrate to inhibition of human BuChE using butyrylthiocholine iodide as substrate
[6] = Effective permeability of the compound at pH 7.4 at 100 uM measured after 3 to 6 hrs by PAMPA assay; assay type: ADME; conditions: read-out: Peff
[7] = target: Cholinesterase (Equus caballus, UniProt P81908); assay: Inhibition of horse serum BuChE using butyrylthiocholine chloride as substrate by spectrophotometric based Ellman's method
Sequence of Cholinesterase (Equus caballus, UniProt P81908) (P81908 whole entry): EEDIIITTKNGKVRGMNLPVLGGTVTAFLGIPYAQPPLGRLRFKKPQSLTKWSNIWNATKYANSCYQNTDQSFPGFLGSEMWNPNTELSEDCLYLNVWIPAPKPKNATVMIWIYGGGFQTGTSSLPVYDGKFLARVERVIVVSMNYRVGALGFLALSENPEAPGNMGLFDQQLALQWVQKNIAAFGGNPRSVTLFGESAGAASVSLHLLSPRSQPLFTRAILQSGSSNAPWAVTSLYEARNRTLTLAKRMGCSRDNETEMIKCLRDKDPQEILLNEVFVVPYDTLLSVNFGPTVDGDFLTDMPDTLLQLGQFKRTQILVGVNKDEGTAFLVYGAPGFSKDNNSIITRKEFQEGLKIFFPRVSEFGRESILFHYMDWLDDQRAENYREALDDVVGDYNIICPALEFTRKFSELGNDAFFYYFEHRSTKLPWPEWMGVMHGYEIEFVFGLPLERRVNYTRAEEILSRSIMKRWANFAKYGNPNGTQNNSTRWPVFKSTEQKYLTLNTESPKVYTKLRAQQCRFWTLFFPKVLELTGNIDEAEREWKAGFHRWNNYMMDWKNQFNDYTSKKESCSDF

T1 sequence (P06276 whole entry): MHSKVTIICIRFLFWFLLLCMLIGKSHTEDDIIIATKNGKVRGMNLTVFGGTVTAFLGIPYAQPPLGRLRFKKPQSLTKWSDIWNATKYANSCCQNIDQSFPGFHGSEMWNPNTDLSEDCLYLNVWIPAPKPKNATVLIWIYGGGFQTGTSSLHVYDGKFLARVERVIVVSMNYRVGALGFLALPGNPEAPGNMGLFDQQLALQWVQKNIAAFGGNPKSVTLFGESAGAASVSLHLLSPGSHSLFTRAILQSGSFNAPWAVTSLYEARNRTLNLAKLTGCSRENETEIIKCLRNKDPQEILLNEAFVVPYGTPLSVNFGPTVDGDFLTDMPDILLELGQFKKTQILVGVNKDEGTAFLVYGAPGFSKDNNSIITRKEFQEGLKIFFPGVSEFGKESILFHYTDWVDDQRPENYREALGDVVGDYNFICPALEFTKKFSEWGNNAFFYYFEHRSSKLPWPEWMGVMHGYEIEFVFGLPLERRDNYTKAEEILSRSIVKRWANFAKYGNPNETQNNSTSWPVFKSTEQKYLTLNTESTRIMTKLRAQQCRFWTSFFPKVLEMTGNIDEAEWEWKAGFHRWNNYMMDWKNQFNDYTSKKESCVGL

Compound | pIC50 [1] | pIC50 [2] | inhibition [3] [%] | inhibition [4] [%] | Ratio IC50 [5] | Papp at 100 µM [6] [×10⁻⁶ cm/s] | pIC50 [7]
COc1c2c(cc3c1OCO3)[C@]13C=C[C@H](OC)C[C@@H]1N(C2)C[C@H]3OC(C)=O | < 4.00 | < 4.00 | – | – | – | – | –
COc1c2c(cc3c1OCO3)[C@]13C=C[C@H](OC)C[C@@H]1[N@](C2)C[C@H]3OC(=O)c1ccc2ccccc2c1 | – | – | 77 | 29 | 5.2 | – | –
COc1ccc(C(=O)O[C@@H]2C[N@@]3Cc4c(cc5c(c4OC)OCO5)[C@@]24C=C[C@H](OC)C[C@H]34)cc1 | < 4.00 | < 4.00 | 32 | 26 | – | – | –
COc1cccc(C(=O)O[C@@H]2C[N@@]3Cc4c(cc5c(c4OC)OCO5)[C@@]24C=C[C@H](OC)C[C@H]34)c1 | – | – | 91 | 25 | > 16 | – | –
COc1c2c(cc3c1OCO3)[C@]13C=C[C@H](OC)C[C@@H]1[N@](C2)C[C@H]3OC(=O)c1ccccc1C | 6.55 | 4.26 | 99 | 51 | 195 | 19 | –
COc1cccc(C(=O)O[C@@H]2CN3Cc4c(cc5c(c4OC)OCO5)[C@@]24C=C[C@H](OC)C[C@H]34)c1 | 5.22 | < 4.00 | – | – | – | – | –
COc1c2c(cc3c1OCO3)[C@]13C=C[C@H](OC)C[C@@H]1[N@](C2)C[C@H]3OC(=O)c1ccc(C)cc1 | – | – | 68 | 28 | > 4 | – | –
C[C@@H]([C@H]1[C@H](O)C[C@@]2(C)[C@@H]3CC[C@H]4C(C)(C)C(=O)C=C[C@@]45C[C@@]35CC[C@]12C)N(C)C | – | – | – | – | – | – | 5.96
COc1c2c(cc3c1OCO3)[C@]13C=C[C@H](OC)C[C@@H]1N(C2)C[C@H]3OC(=O)c1ccc2ccccc2c1 | 4.85 | < 4.00 | – | – | – | – | –
COc1c2c(cc3c1OCO3)[C@]13C=C[C@H](OC)C[C@@H]1[N@](C2)C[C@H]3OC(=O)c1ccccc1[N+](=O)[O-] | – | – | 97 | 75 | 23 | – | –
COc1ccc(C(=O)O[C@@H]2CN3Cc4c(cc5c(c4OC)OCO5)[C@@]24C=C[C@H](OC)C[C@H]34)cc1OC | < 4.00 | < 4.00 | – | – | – | – | –
COc1c2c(cc3c1OCO3)[C@]13C=C[C@H](OC)C[C@@H]1[N@](C2)C[C@H]3OC(=O)c1cccc(C)c1 | – | – | 98 | 41 | > 116 | – | –
COc1c2c(cc3c1OCO3)[C@]13C=C[C@H](OC)C[C@@H]1N(C2)C[C@H]3OC(=O)c1cccc2ccccc12 | 7.00 | < 4.00 | – | – | – | 9 | –
COc1ccccc1C(=O)O[C@@H]1CN2Cc3c(cc4c(c3OC)OCO4)[C@@]13C=C[C@H](OC)C[C@H]23 | 6.37 | < 4.00 | – | – | – | 12 | –
COc1c2c(cc3c1OCO3)[C@]13C=C[C@H](OC)C[C@@H]1[N@](C2)C[C@H]3OC(=O)c1cccc([N+](=O)[O-])c1 | – | – | 53 | 58 | 0.6 | – | –
COc1c2c(cc3c1OCO3)[C@]13C=C[C@H](OC)C[C@@H]1[N@](C2)C[C@H]3OC(=O)c1cccc2ccccc12 | – | – | 96 | 21 | > 1000 | – | –
COc1c2c(cc3c1OCO3)[C@]13C=C[C@H](OC)C[C@@H]1N(C2)C[C@H]3OC(=O)c1ccco1 | < 4.00 | < 4.00 | – | – | – | – | –
CCOc1cc(OCC)cc(C(=O)O[C@@H]2C[N@@]3Cc4c(cc5c(c4OC)OCO5)[C@@]24C=C[C@H](OC)C[C@H]34)c1 | < 4.00 | < 4.00 | 42 | 30 | – | – | –
CO[C@@H]1C=C[C@@]23c4cc5c(cc4CN(C[C@@H]2O)[C@H]3C1)OCO5 [(+)-HAEMANTHAMINE] | < 4.00 | < 4.00 | 13 | 6 | – | – | –

Compound | pIC50 [1] | pIC50 [2] | inhibition [3] [%] | inhibition [4] [%] | Ratio IC50 [5] | Papp at 100 µM [6] [×10⁻⁶ cm/s] | pIC50 [7]
COc1c2c(cc3c1OCO3)[C@]13C=C[C@H](OC)C[C@@H]1N(C2)C[C@H]3OC(=O)c1ccc(C)cc1 | 4.55 | < 4.00 | – | – | – | – | –
COc1c2c(cc3c1OCO3)[C@]13C=C[C@H](OC)C[C@@H]1[N@](C2)C[C@H]3OC(=O)c1ccco1 | – | – | 49 | 12 | – | – | –
CCCCC(=O)O[C@@H]1C[N@@]2Cc3c(cc4c(c3OC)OCO4)[C@@]13C=C[C@H](OC)C[C@H]23 | < 4.00 | < 4.00 | 39 | 7 | – | – | –
COc1c2c(cc3c1OCO3)[C@]13C=C[C@H](OC)C[C@@H]1N(C2)C[C@H]3OC(=O)C(C)C | < 4.00 | < 4.00 | – | – | – | – | –
COc1c2c(cc3c1OCO3)[C@]13C=C[C@H](OC)C[C@@H]1N(C2)C[C@H]3OC(=O)c1ccccc1[N+](=O)[O-] | 5.64 | 4.27 | – | – | – | 12 | –
COc1c2c(cc3c1OCO3)[C@]13C=C[C@H](OC)C[C@@H]1[N@](C2)C[C@H]3OC(=O)c1ccccc1 | – | – | 97 | 25 | > 26 | – | –
COc1c2c(cc3c1OCO3)[C@]13C=C[C@H](OC)C[C@@H]1N(C2)C[C@H]3OC(=O)c1ccoc1 | 4.49 | < 4.00 | – | – | – | – | –
CCC(=O)O[C@@H]1C[N@@]2Cc3c(cc4c(c3OC)OCO4)[C@@]13C=C[C@H](OC)C[C@H]23 | < 4.00 | < 4.00 | 16 | 15 | – | – | –
COc1ccc(C(=O)O[C@@H]2C[N@@]3Cc4c(cc5c(c4OC)OCO5)[C@@]24C=C[C@H](OC)C[C@H]34)cc1OC | – | – | 33 | 15 | – | – | –
COc1c2c(cc3c1OCO3)[C@]13C=C[C@H](OC)C[C@@H]1N(C2)C[C@H]3OC(=O)c1cccc([N+](=O)[O-])c1 | 4.09 | 4.32 | – | – | – | – | –
C[C@@H]([C@H]1CC[C@@]2(C)[C@@H]3CC[C@@H]4C(=CC3=CC[C@]12C)C=C[C@H](NC(=O)c1ccccc1)C4(C)C)N(C)C | – | – | – | – | – | – | 5.77
COc1c2c(cc3c1OCO3)[C@]13C=C[C@H](OC)C[C@@H]1[N@](C2)C[C@H]3OC(=O)c1ccc([N+](=O)[O-])cc1 | < 4.00 | < 4.00 | 37 | 31 | – | – | –
COc1c2c(cc3c1OCO3)[C@]13C=C[C@H](OC)C[C@@H]1N(C2)C[C@H]3OC(=O)c1ccccc1 | 5.42 | < 4.00 | – | – | – | 12 | –
COc1c2c(cc3c1OCO3)[C@]13C=C[C@H](OC)C[C@@H]1[N@](C2)C[C@H]3OC(=O)c1ccoc1 | – | – | 61 | 12 | 1.9 | – | –
COc1ccccc1C(=O)O[C@@H]1C[N@@]2Cc3c(cc4c(c3OC)OCO4)[C@@]13C=C[C@H](OC)C[C@H]23 | – | – | 99 | 31 | > 235 | – | –
COc1c2c(cc3c1OCO3)[C@]13C=C[C@H](OC)C[C@@H]1N(C2)C[C@H]3OC(=O)c1cccc(C)c1 | 6.07 | < 4.00 | – | – | – | 8 | –
COc1c2c(cc3c1OCO3)[C@]13C=C[C@H](OC)C[C@@H]1[N@](C2)C[C@H]3OC(C)=O | – | – | 28 | 4 | – | – | –
COc1c2c(cc3c1OCO3)[C@]13C=C[C@H](OC)C[C@@H]1[N@](C2)C[C@H]3OC(=O)C(C)C | – | – | 12 | 3 | – | – | –
COc1c2c(cc3c1OCO3)[C@]13C=C[C@H](OC)C[C@@H]1[N@](C2)C[C@H]3O | < 4.00 | < 4.00 | 8 | 4 | – | – | –
